The record followed here is BindingDB's records for patent US20240425524 (Merck Sharp & Dohme, 2024).

Broadly, the pEC50 is the EC50 on a negative log10 scale, so that one unit is a factor of ten.

The target in the experiment is T1, Receptor-interacting serine/threonine-protein kinase 1 (Homo sapiens, UniProt Q13546).
T1 sequence (Q13546 whole entry): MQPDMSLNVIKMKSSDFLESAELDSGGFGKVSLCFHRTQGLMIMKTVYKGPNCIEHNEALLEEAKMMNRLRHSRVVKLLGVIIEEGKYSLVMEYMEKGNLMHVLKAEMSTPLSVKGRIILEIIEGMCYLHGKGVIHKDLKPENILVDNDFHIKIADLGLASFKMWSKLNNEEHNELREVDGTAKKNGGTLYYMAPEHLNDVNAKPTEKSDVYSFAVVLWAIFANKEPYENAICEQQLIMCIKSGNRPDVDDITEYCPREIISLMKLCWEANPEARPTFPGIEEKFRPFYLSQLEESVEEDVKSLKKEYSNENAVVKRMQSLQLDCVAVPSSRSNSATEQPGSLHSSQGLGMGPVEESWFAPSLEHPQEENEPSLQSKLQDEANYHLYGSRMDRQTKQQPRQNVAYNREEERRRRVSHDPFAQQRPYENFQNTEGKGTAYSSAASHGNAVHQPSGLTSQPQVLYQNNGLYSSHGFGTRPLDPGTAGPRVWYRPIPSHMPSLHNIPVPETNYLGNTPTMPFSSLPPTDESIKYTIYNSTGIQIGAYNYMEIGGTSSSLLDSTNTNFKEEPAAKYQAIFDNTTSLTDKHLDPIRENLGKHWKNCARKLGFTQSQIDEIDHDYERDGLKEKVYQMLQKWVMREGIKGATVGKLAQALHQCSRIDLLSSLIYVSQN
The experiment is described as follows: RIPK1-ADP-Glo Enzymatic Assay. Here is the method: In this assay, the potency (EC50) of each compound was determined from a ten-point (1:3 serial dilution: top compound concentration of 100000 nM) titration curve using the following outlined procedure. To each well of a white ProxiPlus 384 well-plate, 30 nL of compound (1% DMSO in final assay volume of 3 μL) was dispensed, followed by the addition of 2 μL of 1x assay buffer (25 mM Hepes 7.3, 20 mM MgCl2, 50 mM NaCl, 1 mM DTT, 0.005% Tween20, and 0.02% BSA) containing 37.5 nM of GST-RIPK1 (recombinant GST-RIPK1 kinase domain (residues 1-327) enzyme produced from baculovirus-transfected Sf21 cells: MW=62 kDa). Plates were placed in an ambient temperature humidified chamber for a 30 minutes pre-incubation with compound. Subsequently, each reaction was initiated by the addition of 1 μL 1× assay buffer containing 900 μM ATP and […]. The final reaction in each well of 3 μL consists of 25 nM of GST-RIPK1, 300 µM ATP, and 3 μM dephosphorylated-MBP. Kinase reactions were allowed to proceed for 150 minutes prior to adding ADP-Glo reagents per Promega's outlined kit protocol. Dose-response curves were generated by plotting percent effect (% product conversion: Y-axis) vs. Logio compound concentrations (X-axis).
(In general: ADP-Glo turns the ADP formed in a reaction into a luminescent signal.)

Each structure is given as a SMILES string. pEC50: −log10 of the molar value.

In turn, `O=C1N2[C@H](c3cc(F)cc(F)c3)CCN2CC12CCN(c1cc(Cl)c(F)cn1)CC2` [US20240425524, Example 1.10] showed a pEC50 of 8.00.

The compound `Cc1csc2ncnc(N3CCC4(CC3)CN3CC[C@@H](c5cc(F)cc(F)c5)N3C4=O)c12` [US20240425524, Example 1.15] had a pEC50 of 7.77.
